In article PMC9121441 (Molecular pharmaceutics, 2019):
Where two headings read alike, the source gives them in different places.

Tests used:
CYP2B6 [1] = target: T1, CYP2B6 (Homo sapiens, UniProt P20813); test: Ketamine demethylation measured by norketamine formation; type: in vitro ADME; conditions: for Km at 10 min: human, pH 7.4, Km
T1 sequence (P20813 1-491): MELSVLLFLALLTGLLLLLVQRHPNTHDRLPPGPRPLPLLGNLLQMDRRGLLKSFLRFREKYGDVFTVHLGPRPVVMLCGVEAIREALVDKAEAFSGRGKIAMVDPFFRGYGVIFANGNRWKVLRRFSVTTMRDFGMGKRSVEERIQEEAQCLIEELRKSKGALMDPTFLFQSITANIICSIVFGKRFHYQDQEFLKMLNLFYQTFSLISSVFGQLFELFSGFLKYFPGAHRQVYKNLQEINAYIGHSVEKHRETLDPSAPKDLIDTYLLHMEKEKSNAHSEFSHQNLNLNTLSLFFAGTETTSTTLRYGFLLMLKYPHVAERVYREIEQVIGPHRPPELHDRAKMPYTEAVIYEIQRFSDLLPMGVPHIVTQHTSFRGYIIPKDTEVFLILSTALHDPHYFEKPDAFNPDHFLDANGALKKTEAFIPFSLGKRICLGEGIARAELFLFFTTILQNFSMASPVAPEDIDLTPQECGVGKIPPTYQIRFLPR

CYP2B6 [2] = target: T1, CYP2B6; test: Ketamine demethylation measured by formaldehyde formation; conditions: product formaldehyde
CYP2B6 [3] = target: T1, CYP2B6; conditions: human liver microsomes; cited from earlier work
[4] = oral ketamine, first-pass metabolism; cited from earlier work
[5] = N-demethylation, product R-norketamine
[6] = N-demethylation, product S-norketamine

Row | Compound | Km (CYP2B6 [1]; [5]) [µM] | Vmax (CYP2B6 [1]; [5]) [pmol・min^−1・pmol CYP^−1] | Clint (CYP2B6 [1]; Vmax/Km, product R-norketamine) [ml・min^–1・nmol P450^–1] | Vmax (CYP2B6 [2]; N-demethylation) [pmol・min^−1・pmol CYP^−1] | Clint (CYP2B6 [2]; in vitro intrinsic clearance Vmax/Km) [ml・min^–1・nmol P450^–1] | Km at 10 min (CYP2B6 [1]; [6]) [µM] | Km (CYP2B6 [3]) [µM] | Km at 10 min (CYP2B6 [1]; [5]) [µM] | oral bioavailability [4] [%]
1 | CN[C@@]1(c2ccccc2Cl)CCCCC1=O [R-ketamine] | 11 ± 1 | 65 ± 1 | 5.7 | 92 ± 2 | 6.2 |  |  |  | 
2 | CN[C@]1(c2ccccc2Cl)CCCCC1=O [S-ketamine] |  |  |  |  |  | 10 ± 1 | 44 |  | 
3 | CNC1(c2ccccc2Cl)CCCCC1=O (stereo not shown) [ketamine, 2-(2-chlorophenyl)-2-(methylamino)cyclohexan-1-one] |  |  |  |  |  | 5 ± 1 |  | 4 ± 1 | 15
